Assays:
Test in all cases: KINOMEscan
Assay type in all cases: binding
Settings in all cases: read-out: % control activity remaining
CAMK2D = biological target: T1, CAMK2D (Homo sapiens, UniProt Q13557)
T1 construct: purchased Eurofins DiscoverX KINOMEscan

CDK11 = biological target: T2, CDK11 (Homo sapiens, UniProt Q9BWU1)
T2 construct: purchased Eurofins DiscoverX KINOMEscan

DLK = biological target: T3, DLK (Homo sapiens, UniProt Q12852)
T3 construct: purchased Eurofins DiscoverX KINOMEscan
T3 sequence (Q12852 1-859): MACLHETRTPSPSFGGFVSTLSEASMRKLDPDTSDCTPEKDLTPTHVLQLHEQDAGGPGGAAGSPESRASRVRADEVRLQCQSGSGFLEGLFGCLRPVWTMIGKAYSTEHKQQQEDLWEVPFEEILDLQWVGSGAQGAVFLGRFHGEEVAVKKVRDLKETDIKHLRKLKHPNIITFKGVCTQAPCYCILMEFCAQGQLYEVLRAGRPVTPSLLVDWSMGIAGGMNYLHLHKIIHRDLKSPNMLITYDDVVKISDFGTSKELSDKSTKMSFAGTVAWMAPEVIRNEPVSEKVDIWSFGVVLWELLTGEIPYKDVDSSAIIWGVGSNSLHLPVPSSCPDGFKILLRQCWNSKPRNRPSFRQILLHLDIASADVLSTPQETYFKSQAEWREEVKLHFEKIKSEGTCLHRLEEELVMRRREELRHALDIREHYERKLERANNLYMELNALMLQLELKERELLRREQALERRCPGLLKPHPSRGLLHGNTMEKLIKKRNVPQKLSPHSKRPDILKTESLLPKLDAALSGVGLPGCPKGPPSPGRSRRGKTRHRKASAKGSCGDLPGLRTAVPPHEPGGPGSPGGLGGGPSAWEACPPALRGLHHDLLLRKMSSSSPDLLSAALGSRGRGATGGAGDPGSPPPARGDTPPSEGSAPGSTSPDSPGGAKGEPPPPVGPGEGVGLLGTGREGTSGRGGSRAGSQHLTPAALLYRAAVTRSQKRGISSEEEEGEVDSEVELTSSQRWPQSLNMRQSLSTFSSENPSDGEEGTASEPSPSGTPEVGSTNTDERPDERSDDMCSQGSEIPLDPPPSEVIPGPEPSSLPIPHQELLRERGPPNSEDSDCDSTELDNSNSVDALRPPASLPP

[1] = biological target: T4, EGFR(L747-E749del, A750P) (Homo sapiens, UniProt P00533, A750P/DEL747-749)
T4 construct: purchased Eurofins DiscoverX KINOMEscan

MARK3 = biological target: T5, MARK3 (Homo sapiens, UniProt P27448)
T5 construct: purchased Eurofins DiscoverX KINOMEscan

NEK2 = biological target: T6, NEK2 (Homo sapiens, UniProt P51955)
T6 construct: purchased Eurofins DiscoverX KINOMEscan
T6 sequence (P51955 1-445): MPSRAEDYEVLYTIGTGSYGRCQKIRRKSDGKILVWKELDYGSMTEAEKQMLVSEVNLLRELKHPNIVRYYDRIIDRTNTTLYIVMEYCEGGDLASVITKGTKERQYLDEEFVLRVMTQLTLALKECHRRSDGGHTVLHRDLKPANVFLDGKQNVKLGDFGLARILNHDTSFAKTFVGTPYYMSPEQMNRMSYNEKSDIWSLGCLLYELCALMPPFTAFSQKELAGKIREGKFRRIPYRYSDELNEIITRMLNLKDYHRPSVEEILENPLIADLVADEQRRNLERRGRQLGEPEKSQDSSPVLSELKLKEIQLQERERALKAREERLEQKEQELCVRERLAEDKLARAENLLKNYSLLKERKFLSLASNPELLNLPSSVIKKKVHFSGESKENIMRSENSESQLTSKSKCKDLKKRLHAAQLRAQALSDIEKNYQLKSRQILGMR

ULK2 = biological target: T7, ULK2 (Homo sapiens, UniProt Q8IYT8)
T7 construct: purchased Eurofins DiscoverX KINOMEscan
T7 sequence (Q8IYT8 1-1036): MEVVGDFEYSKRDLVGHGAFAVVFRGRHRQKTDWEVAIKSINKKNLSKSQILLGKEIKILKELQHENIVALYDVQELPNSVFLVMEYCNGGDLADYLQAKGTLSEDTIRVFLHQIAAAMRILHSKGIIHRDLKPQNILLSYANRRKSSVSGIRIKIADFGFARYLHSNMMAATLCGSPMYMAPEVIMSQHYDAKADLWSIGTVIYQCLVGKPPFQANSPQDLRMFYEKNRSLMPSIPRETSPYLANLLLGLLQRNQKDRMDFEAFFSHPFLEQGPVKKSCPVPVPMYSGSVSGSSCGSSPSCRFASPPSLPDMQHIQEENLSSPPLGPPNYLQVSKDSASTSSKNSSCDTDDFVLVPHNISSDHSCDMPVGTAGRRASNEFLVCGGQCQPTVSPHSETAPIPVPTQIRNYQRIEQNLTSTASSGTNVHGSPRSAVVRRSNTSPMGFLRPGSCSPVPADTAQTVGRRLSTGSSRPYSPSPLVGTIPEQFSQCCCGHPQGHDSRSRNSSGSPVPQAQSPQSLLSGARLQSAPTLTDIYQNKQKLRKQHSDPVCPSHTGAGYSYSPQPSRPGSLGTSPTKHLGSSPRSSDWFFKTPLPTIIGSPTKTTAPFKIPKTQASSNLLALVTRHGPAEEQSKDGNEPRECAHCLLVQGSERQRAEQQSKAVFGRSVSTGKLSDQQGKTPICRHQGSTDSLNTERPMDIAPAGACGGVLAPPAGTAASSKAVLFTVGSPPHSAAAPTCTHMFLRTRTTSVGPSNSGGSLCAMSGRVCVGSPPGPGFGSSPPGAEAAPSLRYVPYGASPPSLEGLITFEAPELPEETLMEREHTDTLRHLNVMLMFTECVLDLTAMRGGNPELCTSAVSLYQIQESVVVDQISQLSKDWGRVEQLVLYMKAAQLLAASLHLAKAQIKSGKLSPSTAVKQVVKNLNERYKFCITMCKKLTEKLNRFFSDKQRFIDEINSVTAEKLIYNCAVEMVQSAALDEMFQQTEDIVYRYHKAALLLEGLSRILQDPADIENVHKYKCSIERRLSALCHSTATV

T1 sequence (Q13557 whole entry): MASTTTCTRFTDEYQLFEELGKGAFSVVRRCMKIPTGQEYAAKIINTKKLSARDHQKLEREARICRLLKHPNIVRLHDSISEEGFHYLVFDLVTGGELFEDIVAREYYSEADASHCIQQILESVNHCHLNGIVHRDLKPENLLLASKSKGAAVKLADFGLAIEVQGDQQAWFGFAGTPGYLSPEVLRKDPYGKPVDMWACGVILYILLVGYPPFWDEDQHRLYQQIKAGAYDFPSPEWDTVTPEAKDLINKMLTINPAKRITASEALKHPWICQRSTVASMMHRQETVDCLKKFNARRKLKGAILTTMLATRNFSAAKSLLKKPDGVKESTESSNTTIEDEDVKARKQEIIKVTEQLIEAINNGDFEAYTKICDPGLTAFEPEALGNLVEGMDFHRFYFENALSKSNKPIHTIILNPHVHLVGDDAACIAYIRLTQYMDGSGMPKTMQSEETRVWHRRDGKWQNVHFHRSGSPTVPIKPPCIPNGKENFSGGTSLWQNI
T2 sequence (Q9BWU1 whole entry): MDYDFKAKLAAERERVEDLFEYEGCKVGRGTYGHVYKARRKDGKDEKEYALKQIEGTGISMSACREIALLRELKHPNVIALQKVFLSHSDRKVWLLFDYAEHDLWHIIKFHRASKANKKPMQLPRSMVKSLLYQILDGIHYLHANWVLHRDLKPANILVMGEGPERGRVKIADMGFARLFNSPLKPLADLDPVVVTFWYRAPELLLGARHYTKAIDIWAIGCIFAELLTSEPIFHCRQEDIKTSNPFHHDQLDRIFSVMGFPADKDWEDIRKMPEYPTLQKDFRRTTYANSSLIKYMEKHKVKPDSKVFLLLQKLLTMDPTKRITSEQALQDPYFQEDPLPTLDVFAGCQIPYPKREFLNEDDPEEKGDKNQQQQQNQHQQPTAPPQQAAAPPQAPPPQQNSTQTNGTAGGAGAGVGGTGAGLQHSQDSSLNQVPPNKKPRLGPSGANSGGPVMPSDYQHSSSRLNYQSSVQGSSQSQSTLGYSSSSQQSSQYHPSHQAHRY
T5 sequence (P27448 whole entry): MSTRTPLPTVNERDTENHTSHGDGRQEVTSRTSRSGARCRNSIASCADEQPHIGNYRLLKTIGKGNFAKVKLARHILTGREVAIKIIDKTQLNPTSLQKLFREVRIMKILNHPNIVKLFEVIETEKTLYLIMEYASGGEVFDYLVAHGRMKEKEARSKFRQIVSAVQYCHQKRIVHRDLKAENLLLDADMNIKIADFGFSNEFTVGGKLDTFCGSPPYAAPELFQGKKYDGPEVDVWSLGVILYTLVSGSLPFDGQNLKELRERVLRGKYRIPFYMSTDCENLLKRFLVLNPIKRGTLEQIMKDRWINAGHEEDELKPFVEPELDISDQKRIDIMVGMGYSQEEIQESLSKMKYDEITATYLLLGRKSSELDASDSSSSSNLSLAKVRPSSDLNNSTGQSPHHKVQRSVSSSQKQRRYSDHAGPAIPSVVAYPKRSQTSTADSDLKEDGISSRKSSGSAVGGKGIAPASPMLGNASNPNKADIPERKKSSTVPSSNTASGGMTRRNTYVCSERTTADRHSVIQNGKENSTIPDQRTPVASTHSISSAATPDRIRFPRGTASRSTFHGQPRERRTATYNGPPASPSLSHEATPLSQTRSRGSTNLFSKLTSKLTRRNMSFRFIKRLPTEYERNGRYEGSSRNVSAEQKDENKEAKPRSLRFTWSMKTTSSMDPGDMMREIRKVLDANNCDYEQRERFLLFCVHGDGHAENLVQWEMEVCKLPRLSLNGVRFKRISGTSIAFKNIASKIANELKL
T4 sequence (P00533 with tags, fused parts or gaps A750P/DEL747-749 limits assumed): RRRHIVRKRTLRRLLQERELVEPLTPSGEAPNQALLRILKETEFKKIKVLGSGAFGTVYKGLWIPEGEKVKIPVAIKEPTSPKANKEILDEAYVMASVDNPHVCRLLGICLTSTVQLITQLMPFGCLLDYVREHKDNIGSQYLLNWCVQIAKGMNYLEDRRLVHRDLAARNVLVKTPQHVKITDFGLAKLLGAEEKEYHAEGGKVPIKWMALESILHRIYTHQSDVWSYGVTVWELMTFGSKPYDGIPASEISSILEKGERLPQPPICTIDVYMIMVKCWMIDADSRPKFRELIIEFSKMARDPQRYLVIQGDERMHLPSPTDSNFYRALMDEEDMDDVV

| SMILES | remaining binding at 1 µM (CAMK2D) [%] | remaining binding at 1 µM (CDK11) [%] | remaining binding at 1 µM (DLK) [%] | remaining binding at 1 µM [1] [%] | remaining binding at 1 µM (MARK3) [%] | remaining binding at 1 µM (NEK2) [%] | remaining binding at 1 µM (ULK2) [%] |
| --- | --- | --- | --- | --- | --- | --- | --- |
| Clc1cc(NCC2CC2)c2ncc(-c3ccc4[nH]ncc4c3)n2n1 [compound 2, 6-Chloro-N-(cyclopropylmethyl)-3-(1H-indazol-5-yl)imidazo[1,2-b]pyridazin-8-amine] | 97 | 97 | 89 | 87 | 100 | 100 | 98 |
| O=C(CN1CCOCC1)N[C@H]1CC[C@H](Nc2cc(Cl)nn3c(-c4ccc5[nH]ncc5c4)cnc23)CC1 [compound 26] | 62 | 98 | 83 | 83 | 99 | 92 | 94 |
| CN1CCC(CNc2cc(Cl)nn3c(-c4cc5nc(Nc6ccccc6)[nH]c5cc4F)cnc23)CC1 [compound 31, 6-Chloro-3-(6-fluoro-2-(phenylamino)-1H-benzo[d]imidazol-5-yl)-N-((1-methylpiperidin-4-yl)methyl)imidazo[1,2-b]pyridazin-8-amine] | 100 | 91 | 100 | 81 | 60 | 92 | 83 |

From PMC6437697 (Journal of Medicinal Chemistry, 2019)
